Laboratory results from patent US9221756B2, “Pyrrole derivatives” (priority 2011, dated 2015).
pIC50: −log10 of the molar value.

The compounds below were run against pneumolysin (Streptococcus pneumoniae serotype 2, UniProt Q04IN8) (assay: Inhibition of the haemolytic activity of pneumolysin (sheep erythrocytes)). Settings: IC50, inhibition of pneumolysin-induced haemolysis of sheep erythrocytes; class symbols of Table 1.
Type: cell-based

Chain of pneumolysin (Q04IN8 whole entry): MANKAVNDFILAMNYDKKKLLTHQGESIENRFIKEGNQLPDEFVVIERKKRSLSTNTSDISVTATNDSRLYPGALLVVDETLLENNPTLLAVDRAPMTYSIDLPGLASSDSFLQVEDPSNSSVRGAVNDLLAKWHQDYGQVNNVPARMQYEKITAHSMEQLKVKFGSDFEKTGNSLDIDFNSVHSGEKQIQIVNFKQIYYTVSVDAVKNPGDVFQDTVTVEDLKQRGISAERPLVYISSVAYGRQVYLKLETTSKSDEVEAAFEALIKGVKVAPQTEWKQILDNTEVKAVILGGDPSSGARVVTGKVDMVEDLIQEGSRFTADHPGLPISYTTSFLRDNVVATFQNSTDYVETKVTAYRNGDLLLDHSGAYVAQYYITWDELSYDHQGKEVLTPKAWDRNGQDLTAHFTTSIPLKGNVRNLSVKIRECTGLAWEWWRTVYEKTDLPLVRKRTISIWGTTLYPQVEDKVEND

| Compound | pIC50 |
| --- | --- |
| CCOC(=O)c1c(O)c(O)c(-c2nn[nH]n2)n1-c1ccc(OC)cc1 [UL1-089, ethyl 3,4-dihydroxy-1-(4-methoxyphenyl)-5-(2H-tetrazol-5-yl)-1H-pyrrole-2-carboxylate] | > 5.00 |
| CCOC(=O)c1c(OCc2ccccc2)c(OCc2ccccc2)c(-c2nn[nH]n2)n1-c1ccc(OC)cc1 [UL1-090, ethyl 3,4-bis(benzyloxy)-1-(4-methoxyphenyl)-5-(2H-tetrazol-5-yl)-1H-pyrrole-2-carboxylate] | > 5.00 |
| COc1ccc(-n2c(C(C)=O)c(O)c(O)c2C(=O)N(C)C)cc1 [UL1-091, 5-acetyl-3,4-dihydroxy-1-(4-methoxyphenyl)-N,N-dimethyl-1H-pyrrole-2-carboxamide] | > 5.00 |
| CCOC(=O)c1c(O)c(O)c(C(=O)N(C)C)n1-c1ccc(OCCOC)cc1 [UL1-093, ethyl 5-(dimethylcarbamoyl)-3,4-dihydroxy-1-(4-(2-methoxyethoxy)phenyl)-1H-pyrrole-2-carboxylate] | > 5.00 |
| CCOC(=O)c1c(O)c(O)c(C(=O)N(C)C)n1-c1ccc(OCCOCCOCCOC)cc1 [UL1-095, ethyl 5-(dimethylcarbamoyl)-3,4-dihydroxy-1-(4-(2-(2-(2-methoxyethoxy)ethoxy)ethoxy)phenyl)-1H-pyrrole-2-carboxylate] | > 5.00 |
| CCOC(=O)c1c(O)c(O)c(C(=O)N(C)C)n1-c1ccc(OCCOCCOCCOCCOC)cc1 [UL1-096, ethyl 1-(4-(2,5,8,11-tetraoxatridecan-13-yloxy)phenyl)-5-(dimethylcarbamoyl)-3,4-dihydroxy-1H-pyrrole-2-carboxylate] | > 5.00 |
| CCOC(=O)c1c(O)c(O)c(C(=O)NC)n1-c1ccc(OC)cc1 [UL1-099, ethyl 3,4-dihydroxy-1-(4-methoxyphenyl)-5-(methylcarbamoyl)-1H-pyrrole-2-carboxylate] | > 5.00 |
| CCOC(=O)c1c(O)c(O)c(C(=O)N(C)C)n1-c1ccc(O)cc1 [UL1-100, ethyl 5-(dimethylcarbamoyl)-3,4-dihydroxy-1-(4-hydroxyphenyl)-1H-pyrrole-2-carboxylate] | > 5.00 |
| CCOC(=O)c1c(O)c(O)c(C(=O)N(C)C)n1-c1ccc(OP(=O)(O)O)cc1 [UL1-101, ethyl 5-(dimethylcarbamoyl)-3,4-dihydroxy-1-(4-(phosphonooxy)phenyl)-1H-pyrrole-2-carboxylate] | > 5.00 |
| CCOC(=O)c1c(O)c(O)c(C(=O)N(C)C)n1-c1ccc(OCCCN2CCOCC2)cc1 [UL1-102, ethyl 5-(dimethylcarbamoyl)-3,4-dihydroxy-1-(4-(3-morpholinopropoxy)phenyl)-1H-pyrrole-2-carboxylate] | > 5.00 |
| CCOC(=O)c1c(O)c(O)c(C(=O)N(C)C)n1-c1ccc(OCCCN2CCN(C)CC2)cc1 [UL1-103, ethyl 5-(dimethylcarbamoyl)-3,4-dihydroxy-1-(4-(3-(4-methylpiperazin-1-yl)propoxy)phenyl)-1H-pyrrole-2-carboxylate] | > 5.00 |
| CCOC(=O)c1c(OC(=O)CCOC)c(OC(=O)CCOC)c(C(=O)N(C)C)n1-c1ccc(OC)cc1 [UL1-104, 2-(dimethylcarbamoyl)-5-(ethoxycarbonyl)-1-(4-methoxyphenyl)-1H-pyrrole-3,4-diyl bis(3-methoxypropanoate)] | > 5.00 |
| CCOC(=O)c1c(O)c(O)c(C(=O)N(C)C)n1-c1ccc(OCCCP(=O)(OCC)OCC)cc1 [UL1-106, ethyl 1-(4-(3-(diethoxyphosphoryl)propoxy)phenyl)-5-(dimethylcarbamoyl)-3,4-dihydroxy-1H-pyrrole-2-carboxylate] | > 5.00 |
| CCOC(=O)c1c(O)c(O)c(C(=O)N(C)C)n1-c1ccc(OCCCP(=O)(O)O)cc1 [UL1-107, (3-(4-(2-(dimethylcarbamoyl)-5-(ethoxycarbonyl)-3,4-dihydroxy-1H-pyrrol-1-yl)phenoxy)propyl)phosphonic acid] | > 5.00 |
| CCOC(=O)c1c(OC(=O)C(C)(C)COCCOC)c(OC(=O)C(C)(C)COCCOC)c(C(=O)N(C)C)n1-c1ccc(OC)cc1 [UL1-108, 2-(dimethylcarbamoyl)-5-(ethoxycarbonyl)-1-(4-methoxyphenyl)-1H-pyrrole-3,4-diyl bis(3-(2-methoxyethoxy)-2,2-dimethylpropanoate)] | 4.70 to 5.00 |
| CCOC(=O)c1c(O)c(O)c(C(=O)N(C)C)n1-c1ccc(OCCCS(C)(=O)=O)cc1 [UL1-110, ethyl 5-(dimethylcarbamoyl)-3,4-dihydroxy-1-(4-(3-(methylsulfonyl)propoxy)phenyl)-1H-pyrrole-2-carboxylate] | > 5.00 |
| COc1ccc(-n2c(C(=O)OCC(C)(C)C)c(O)c(O)c2C(=O)N(C)C)cc1 [UL1-112, neopentyl 5-(dimethylcarbamoyl)-3,4-dihydroxy-1-(4-methoxyphenyl)-1H-pyrrole-2-carboxylate] | > 5.00 |
| COc1ccc(-n2c(C(=O)OC3C(C)CCCC3C)c(O)c(O)c2C(=O)N(C)C)cc1 (stereo not drawn) [UL1-113, 2,6-dimethylcyclohexyl 5-(dimethylcarbamoyl)-3,4-dihydroxy-1-(4-methoxyphenyl)-1H-pyrrole-2-carboxylate] | > 5.00 |
| COc1ccc(-n2c(C(=O)OC3CCCC3)c(O)c(O)c2C(=O)N(C)C)cc1 [UL1-116, cyclopentyl 5-(dimethylcarbamoyl)-3,4-dihydroxy-1-(4-methoxyphenyl)-1H-pyrrole-2-carboxylate] | > 5.00 |
| CCOC(=O)c1c(OC(=O)C(C)(C)COCCOCCOCCOCCOCCOCCOCCOC)c(OC(=O)C(C)(C)COCCOCCOCCOCCOCCOCCOCCOC)c(C(=O)N(C)C)n1-c1ccc(OC)cc1 [UL1-119, 2-(dimethylcarbamoyl)-5-(ethoxycarbonyl)-1-(4-methoxyphenyl)-1H-pyrrole-3,4-diyl bis(25,25-dimethyl-2,5,8,11,14,17,20,23-octaoxahexacosan-26-oate)] | > 5.00 |
| COCCOCCOCCOCCOCCOCCOCCOCC(C)(C)C(=O)Oc1c(OC(=O)C(C)(C)COCCOCCOCCOCCOCCOCCOCCOC)c(C(=O)N(C)C)n(-c2ccc(OC)cc2)c1C(=O)N(C)C [UL1-120, 2,5-bis(dimethylcarbamoyl)-1-(4-methoxyphenyl)-1H-pyrrole-3,4-diyl bis(25,25-dimethyl-2,5,8,11,14,17,20,23-octaoxahexacosan-26-oate)] | 4.70 to 5.00 |
| COc1ccc(-n2c(C(=O)N(C)C)c(OC(=O)C(C)(C)COCCOCCOP(=O)(O)O)c(OC(=O)C(C)(C)COCCOCCOP(=O)(O)O)c2C(=O)N(C)C)cc1 [UL1-121, 2,5-bis(dimethylcarbamoyl)-1-(4-methoxyphenyl)-1H-pyrrole-3,4-diyl bis(2,2-dimethyl-3-(2-(2-(phosphonooxy)ethoxy)ethoxy)propanoate)] | 4.70 to 5.00 |
| COc1ccc(-n2c(C(=O)OC(C)C)c(OC(=O)C(C)(C)COCCOCCOP(=O)(O)O)c(OC(=O)C(C)(C)COCCOCCOP(=O)(O)O)c2C(=O)N(C)C)cc1 [UL1-122, 2-(dimethylcarbamoyl)-5-(isopropoxycarbonyl)-1-(4-methoxyphenyl)-1H-pyrrole-3,4-diyl bis(2,2-dimethyl-3-(2-(2-(phosphonooxy)ethoxy)ethoxy)propanoate)] | > 5.00 |

Same assay, conditions: IC50, inhibition of pneumolysin-induced haemolysis of sheep erythrocytes; specific values

| Compound | pIC50 |
| --- | --- |
| CCOC(=O)c1c(O)c(O)c(-c2nn[nH]n2)n1-c1ccc(OC)cc1 [UL1-089, ethyl 3,4-dihydroxy-1-(4-methoxyphenyl)-5-(2H-tetrazol-5-yl)-1H-pyrrole-2-carboxylate] | 6.40 |
| CCOC(=O)c1c(O)c(O)c(C(=O)N(C)C)n1-c1ccc(OCCCP(=O)(OCC)OCC)cc1 [UL1-106, ethyl 1-(4-(3-(diethoxyphosphoryl)propoxy)phenyl)-5-(dimethylcarbamoyl)-3,4-dihydroxy-1H-pyrrole-2-carboxylate] | 6.77 |
| COc1ccc(-n2c(C(=O)OC3CCCC3)c(O)c(O)c2C(=O)N(C)C)cc1 [UL1-116, cyclopentyl 5-(dimethylcarbamoyl)-3,4-dihydroxy-1-(4-methoxyphenyl)-1H-pyrrole-2-carboxylate] | 6.74 |

Same assay, conditions: inhibition of pneumolysin-induced haemolysis of sheep erythrocytes; class symbols of Table 1; read-out: IC50

| Compound | pIC50 |
| --- | --- |
| CCOC(=O)c1c(O)c(OP(=O)(OCC)OCC)c(C(=O)N(C)C)n1-c1ccc(OC)cc1 [UL1-097, ethyl 4-((diethoxyphosphoryl)oxy)-5-(dimethylcarbamoyl)-3-hydroxy-1-(4-methoxyphenyl)-1H-pyrrole-2-carboxylate] | < 4.22 |
